Measured values as given in patent US20240400529A1, “COMPOSITIONS AND METHODS FOR THE PREVENTION AND/OR TREATMENT OF MITOCHONDRIAL DISEASE, INCLUDING FRIEDREICH'S ATAXIA” (Stealth BioTherapeutics Inc., priority 2019, published 2024).
pEC50: −log10 of the molar value. Entries after “also recorded” stand apart in the source; their conditions may differ. Where two headings read alike, the source gives them in different places.

Legend:
[1] = system: frataxin deficient fibroblasts (Friedreich's ataxia patient, GM03665); assay type: cell-based
[2] = system: GM03665 cells (fibroblasts from a subject with Friedreich's ataxia); assay: RSL3 Toxicity Assay (RSL3 Assay); assay type: cell-based, human
Method: In brief, GM03665 cells (Coriell Institute) were seeded in 96-well plates (Sarstedt) in DMEM cell culture media containing 10% Fetal Bovine serum and 1% Penicillin-Streptomycin (Pen-Strep) antibiotic mix at the amount of 2×10^4/mL (100 μL or 2×10^3 cells per well). Cells were left to rest overnight at 37° C. in a humidified atmosphere with 5% CO2 to allow attachment of the cells to the culture plate. Test compounds were prepared as DMSO stocks (10 mM) and were serially diluted in cell culture media to obtain 2× working solutions. Cell media was discarded and replaced by 50 μL of test compound solutions or cell media with vehicle for control wells. Within 15 minutes, 2× working solution (4 μM) of 1S,3R-RSL3 (CAS #1219810-16-8, Sigma-Aldrich) (diluted from 5 mM DMSO stock in cell culture media) was added. Final reaction volume was 100 μL and final DMSO concentration in reaction was kept below 0.2% (v/v) and equal in all wells. Final RSL3 concentration was 2 μM and test compound final concentrations in reaction were up to 1000 nM. After 24 hours of incubation cell viability was assessed by MTT test. MTT (Sigma-Aldrich) solution 1 mg/mL in 1×PBS (pH=7,4) was prepared 1 hour before the assay and filtered through Filtropur S 0.2 filters (Sarstedt). Cell media with test compounds was discarded and 100 μL of MTT solution was added to cells. The plates were incubated for 2 hours at +37° C. Thereafter, the MTT solution was removed and 100 μL of isopropanol was added to dissolve sediment. Absorption at 570 and 650 nm was measured using Hidex Sense microplate reader.

[3] = system: HepG2 human hepatocarcinoma cells; assay: Rotenone ATP Assay (Complex I by-pass); assay type: cell-based; conditions: for Complex I by-pass activity / restoring ATP production, in words: summary statements also cover the Oxygraph assay
Method: This assay has been adapted from Haefeli R H, Erb M, Gemperli A C, Robay D, Courdier Fruh I, et al. (2011) NQO1-Dependent Redox Cycling of Idebenone: Effects on Cellular Redox Potential and Energy Levels. PLOS ONE 6 (3): e17963. HepG2 human hepatocarcinoma cells were co-incubated with the electron transport chain Complex I toxin rotenone+/−compounds of interest and the corresponding effect on ATP synthesis was measured with a bioluminescent substrate.
In brief, HepG2 cells were plated at 25,000 cells per well in low glucose (1 gram/Liter) DMEM medium+10% fetal calf serum and incubated for 24 hours. The following day, the media was decanted and subsequently replaced with glucose free/serum free DMEM which has been supplemented with 50 micromolar rotenone and compound of interest. Serial dilutions of compound were prepared in 3× dilutions beginning at 25 micromolar. The cells were incubated for 60 minutes in a humidified tissue culture incubator. Following incubation, ATP levels were quantified via bioluminescent assay (Promega […] Glo Assay kit) and readings were captured on a standard microplate reader.
ATP bioluminescence is plotted versus the log of compound of interest and data were used to generate EC50 values. Curve fitting was performed using a sigmoidal dose response curve fit function (GraphPad Prism software).
Robustness of curve fit was assessed as a quality control measure, with an R squared value of at least 0.80 being required for a successful curve fit. Compounds of interest showing an increase in ATP bioluminescence relative to vehicle control were verified in an independent biological replicate of n=3 technical replicates per dose.
This assay is a direct measure of the ability of compounds of interest to restore ATP production under conditions of inhibition of Complex I of the mitochondrial electron transport chain. As the majority of ATP produced via the electron transport chain is thought to derive from Complex I activity, significant impairment in Complex I function has dire biological consequences. Of note, Complex I mutations are thought to drive pathophysiology in multiple mitochondrial diseases, including Leigh syndrome and Leber's Hereditary Optic Neuropathy (LHON), while diminished Complex I activity and the resultant attenuation of ATP production has been shown in neurodegenerative diseases, including Friedreich's Ataxia, Parkinson's Disease and Huntington's Disease.

lipoxygenase-15 enzyme = lipoxygenase-15 enzyme (Glycine max (Soybean) (Glycine hispida), UniProt P08170); assay: Lipoxygenase-15 Assay (LO-15 Assay); assay type: biochemical; conditions: reduced forms tested
Nrf-2 responsive genes = assay: Nrf-2 Activation Assay (Nrf-2 Assay); assay type: cell-based, human; conditions: 24 hours; for activation of Nrf-2 responsive genes / pathway, in words: FIG. 7, 1 μM
Method: This assay was developed internally and was designed to determine if the novel test compounds disclosed herein active Nrf-2 and thereby promote resolution of inflammation by the mechanism believed to be responsible for the activity of omaveloxolone.
Briefly, GM03665 Eriedreich Ataxia patient fibroblasts were grown in 12 Well Plates (TC Cell+F) (Sarstedt, Nümbrecht Germany), at a density of 12×10^4 cells/per well in DMEM/F12 (Gibco, ThermoFisher Scientific, Waltham, MA, USA) cell media supplemented with 10% FBS and 1% Pen/Strep. Cells were left to rest overnight at 37° C. in a humidified atmosphere with 5% CO2 to allow attachment of the cells to the culture plate. Before continuing assay visual inspection of each well was done by light microscopy to detect any possible bacterial and fungal contamination. […] After incubation, cell media was removed and total RNA from the cells was isolated using E.Z.N.A.® Total RNA Kit I (Omega Bio-tek, Norcross, Georgia, USA) spin columns, and first-strand cDNA synthesis was carried out using a High Capacity cDNA Reverse Transcription Kit (Applied Biosystems™, Foster City, CA) following the manufacturer's instructions. qPCR analysis of gene expression was performed by mixing SYBR® Green Master Mix (Applied Biosystems™) with synthesized cDNA and forward and reverse primers. […] (60 cycles), and 95° C. for 60 seconds, followed by melt curve analysis at 72-95° C., 0.3° C./sec. The relative expression levels for each gene were calculated with the ΔΔCt method and normalized to the expression of REEP5 and SNRPD3 genes.

intact HepG2 cells = assay: Rotenone Oxygraph Assay (high-resolution respirometry); assay type: cell-based, human
Method: The Oxygraph-2k (O2k, OROBOROS INSTRUMENTS, Austria) was used for measurements of respiration of intact cells. The respirometry was performed in Dulbecco's Modified Eagle Medium (DMEM) high glucose without supplements. All experiments were performed at 37° C.
HepG2 cells (ATCC collection code HB-8065™) were cultured in 10 cm^2 culture dishes in DMEM high glucose medium supplemented with 10% fetal bovine serum (FBS) and 100 units/mL penicillin and 100 μg/mL streptomycin until approximately 90% confluence was reached. Immediately prior to performing the respirometric assay, the cells were washed with media without FBS, trypsinized and resuspended in DMEM high glucose without FBS.
The final concentration of intact cells in the O2k-chamber was 0.5.10^6/mL. After stabilization of respiration, the Complex I inhibitor, rotenone, at 1 μM final concentration was added to inhibit electron flux via Complex I. Then, compound to be tested was added at 10 μM final concentration, and the change in respiration rate of intact cells was monitored.

| lipoxygenase-15 inhibition, in words (lipoxygenase-15 enzyme) | Structure (SMILES) | protection from BSO induced cell death / ferroptosis, in words [1] | activity in the RSL3 Assay, in words [2] | Complex I by-pass activity / restoring ATP production, in words [3] | activation of Nrf-2 responsive genes / pathway, in words (Nrf-2 responsive genes) | Rotenone Oxygraph Assay % Increase (Table 7) (intact HepG2 cells; 1 μM rotenone, 10 μM compound) | pEC50 ([2]; Homo sapiens, Fibroblast, 2 μM RSL3, 24 hours, MTT, mean of at least three measurements, unit from Table 7, read-out: Mean EC50, RSL3 Assay (Table 3)) | EC50 ([2]; Homo sapiens, Fibroblast, 2 μM RSL3, 24 hours, MTT, read-out: RSL3 Assay EC50, nM (Table 7)) | Nrf-2 Assay (Table 7) (Nrf-2 responsive genes; 1 μM compound, qPCR of Nrf-2 responsive genes) | RSL3 Assay EC50, nM (Table 7) ([2]; 2 μM RSL3, 24 hours, MTT) | Mean EC50, RSL3 Assay (Table 3) ([2]; 2 μM RSL3, 24 hours, MTT, mean of at least three measurements, unit from Table 7) | activity in the Rotenone Oxygraph Assay, in words (intact HepG2 cells) | Percent increase in ATP (Table 4, Rotenone Oxygraph Assay) (intact HepG2 cells; 1 μM rotenone, 10 μM compound, change in respiration rate of intact cells) | Rotenone ATP Assay EC50, nM (Table 7) ([3]; HepG2, 50 micromolar rotenone, 60 minutes) |
| --- | --- | --- | --- | --- | --- | --- | --- | --- | --- | --- | --- | --- | --- | --- |
|  | CC(C)=CCC/C(C)=C/CC/C(C)=C/CC[C@@](C)(O)CCC1=C(C)C(=O)C(C)=C(C)C1=O (stereo in doubt) [Vatiquinone, reference compound] | ability to circumvent BSO induced cell death | active | not |  |  |  |  |  |  |  |  |  |  |
|  | Cc1c(C)c2c(c(C)c1O)CC[C@@](C)(CCC=C(F)F)O2 [Compound 67, (R)-2-(4,4-difluorobut-3-en-1-yl)-2,5,7,8-tetramethylchroman-6-ol] | possess both activities |  | possess both activities |  |  |  |  |  |  |  |  |  |  |
| outside of the range of the assay | CC1=C(C)C(=O)C(CC[C@](C)(O)CC/C=C(\C)CC/C=C(\C)CCC=C2COC2)=C(C)C1=O [Compound E, 2-((R,6E,10E)-3-hydroxy-3,7,11-trimethyl-14-(oxetan-3-ylidene)tetradeca-6,10-dien-1-yl)-3,5,6-trimethylcyclohexa-2,5-diene-1,4-dione] | possess both activities; also recorded: able to prevent ferroptotic cell death; also recorded: active | active; also recorded: able to prevent ferroptotic cell death | possess both activities | do not activate | 37.9 +/− 10.7% |  |  |  |  |  |  |  |  |
| effective inhibitors | CC1=C(C)C(=O)C(CC[C@](C)(O)CC/C=C(\C)CCC=C(F)F)=C(C)C1=O [Compound H, (R,E)-2-(11,11-difluoro-3-hydroxy-3,7-dimethylundeca-6,10-dien-1-yl)-3,5,6-trimethylcyclohexa-2,5-diene-1,4-dione] | able to prevent ferroptotic cell death; also recorded: active | active; also recorded: able to prevent ferroptotic cell death |  | do not activate | 54.3 +/− 13% |  |  |  |  |  |  |  |  |
| effective inhibitors | CC1=C(C)C(=O)C(CC[C@@](C)(O)CC/C=C(\C)CCC=C(F)F)=C(C)C1=O [Compound L, (S,E)-2-(11,11-difluoro-3-hydroxy-3,7-dimethylundeca-6,10-dien-1-yl)-3,5,6-trimethylcyclohexa-2,5-diene-1,4-dione] | possess both activities; also recorded: able to prevent ferroptotic cell death; also recorded: active | active; also recorded: able to prevent ferroptotic cell death | possess both activities | do not activate | 58.6 +/− 15.5% |  |  |  |  |  |  |  |  |
|  | COC1=C(OC)C(=O)C(CCCCCCCCCCO)=C(C)C1=O [Idebenone, reference compound] | very weakly active/borderline inactive |  | ability to restore ATP production when Complex I is inhibited |  | 70.2 +/− 15% |  |  |  |  |  |  |  |  |
|  | CC1(C)CC[C@]2(NC(=O)C(C)(F)F)CC[C@]3(C)[C@H](C(=O)C=C4[C@@]5(C)C=C(C#N)C(=O)C(C)(C)[C@@H]5CC[C@]43C)[C@@H]2C1 [Omaveloxolone, reference compound] | ability to circumvent BSO induced cell death; also recorded: displayed anti-ferroptotic activity | completely inactive | not | positive and does | Inactive |  |  |  | Inactive | Inactive | inactive | Inactive | Inactive |

| Structure (SMILES) | lipoxygenase-15 inhibition, in words (lipoxygenase-15 enzyme) | protection from BSO induced cell death / ferroptosis, in words [1] | activity in the RSL3 Assay, in words [2] | Complex I by-pass activity / restoring ATP production, in words [3] | activation of Nrf-2 responsive genes / pathway, in words (Nrf-2 responsive genes) | Rotenone Oxygraph Assay % Increase (Table 7) (intact HepG2 cells; 1 μM rotenone, 10 μM compound) | pEC50 ([2]; Homo sapiens, Fibroblast, 2 μM RSL3, 24 hours, MTT, mean of at least three measurements, unit from Table 7, read-out: Mean EC50, RSL3 Assay (Table 3)) | EC50 ([2]; Homo sapiens, Fibroblast, 2 μM RSL3, 24 hours, MTT, read-out: RSL3 Assay EC50, nM (Table 7)) | Nrf-2 Assay (Table 7) (Nrf-2 responsive genes; 1 μM compound, qPCR of Nrf-2 responsive genes) | RSL3 Assay EC50, nM (Table 7) ([2]; 2 μM RSL3, 24 hours, MTT) | Mean EC50, RSL3 Assay (Table 3) ([2]; 2 μM RSL3, 24 hours, MTT, mean of at least three measurements, unit from Table 7) | activity in the Rotenone Oxygraph Assay, in words (intact HepG2 cells) | Percent increase in ATP (Table 4, Rotenone Oxygraph Assay) (intact HepG2 cells; 1 μM rotenone, 10 μM compound, change in respiration rate of intact cells) | Rotenone ATP Assay EC50, nM (Table 7) ([3]; HepG2, 50 micromolar rotenone, 60 minutes) |
| --- | --- | --- | --- | --- | --- | --- | --- | --- | --- | --- | --- | --- | --- | --- |
| CC1=C(C)C(=O)C(CC[C@@](C)(O)COCCC[Si](C)(C)C)=C(C)C1=O [Compound M, (R)-2-(3-hydroxy-3-methyl-4-(3-(trimethylsilyl)propoxy)butyl)-3,5,6-trimethylcyclohexa-2,5-diene-1,4-dione] | best result; also recorded: effective inhibitors | able to prevent ferroptotic cell death; also recorded: active | active; also recorded: able to prevent ferroptotic cell death | active | do not activate | 56.6 +/− 11.3% | 7.39 | 41.2 nM | Inactive |  |  |  |  |  |
